Tests used:
[1] = system: Brachyspira infection; test: Example 5.3: lincomycin nourishment with or without EDTA Na2 salt, livestock with bloody diarrhoea partly resistant to lincomycin; assay type: in vivo, pigs
Text: (§1) Testing of Compositions Comprising EDTA on Pigs Suffering from Bloody Diarrhoea (Brachyspira Infection)
At a pig farm infected with the pathogen a nourishment comprising 110 ppm of lincomycin was fed with the livestock suffering from bloody diarrhoea. […] The livestock was separated proportionally, and in the test group 240 ppm of EDTA Na2 salt was admixed to the nourishment, utilizing the premix according to Example 1.

[2] = system: Brachyspira infection; test: Example 5.5: prevention in weaned piglets with complemented nourishment; assay type: in vivo, pigs; conditions: test group: nourishment with 240 ppm EDTA Na2, 22 ppm essential oils (1:1 oregano oil and thyme oil) and 100 ppm tannic acid
Text: Testing of Compositions Comprising EDTA on Pigs Suffering from Bloody Diarrhoea (Brachyspira Infection) At a pig farm with frequently occurring bloody diarrhoea three groups were formed randomly from weaned piglets at switching to solid nourishment. In the first group (test group) the animals were fed continuously with a nourishment comprising 240 ppm of EDTA Na2, 22 ppm of essential oils (1:1 mixture of oregano oil and thyme oil) and 100 ppm of tannic acid. In the second group (control group 1) the animals were fed continuously with a nourishment comprising essential oils and tannic acid in the above amounts but free of EDTA Na2. In the third group (control group 2) no EDTA Na2, essential oils or tannic acid were added to the nourishment of the animals. After a certain period of time soft faeces and then bloody diarrhoea appeared in the animals of control group 2 (fed with a nourishment without completion). Bacteria of Brachospira type were detected in the faeces.

[3] = system: Brachyspira infection; test: Example 5.2: treatment of pigs suffering from bloody diarrhoea, EDTA Na2 in drinking water; assay type: in vivo
Description: as §1
Pigs suffering from bloody diarrhoea, husbanded on the farm according to Example 5.1, were treated with EDTA Na2 in such a way that 200 ppm of EDTA Na2 were dissolved in the drinking water of the animals. […] In the control group where on the day following the cease of diarrhoea the animals were returned to drinking of pure water bloody diarrhoea reappeared after 4 days.

[4] = system: Brachyspira infection; test: Example 5.4: lincomycin-resistant animals, lincomycin therapy maintained plus EDTA Na2 in drinking water; assay type: in vivo, pigs
Description: as §1
In a part of the lincomycin-resistant animals belonging to the livestock according to Example 5.3, no treatment with another antibiotic was performed, but lincomycin therapy was maintained and simultaneously drinking water comprising 60 ppm of EDTA Na2 was added to the animals.

[5] = system: Brachyspira infection; test: Example 5.1: prevention of bloody diarrhoea, EDTA Na2 salt in the fodder on an infected pig farm; assay type: in vivo, pigs; conditions: 240 ppm EDTA Na2 salt in fodder via premix of Example 1
Text: as §1
On a pig farm infected with the pathogen 3 test groups of 20 animals each and one control group of 20 animals were formed from 90 days old piglets. The fodder of the animals belonging to the test groups was complemented throughout the test period (which lasted to slaughtering) with 240 ppm of EDTA Na2 salt utilizing the premix as described in Example 1.

In the case of `CCC[C@@H]1C[C@@H](C(=O)N[C@@H]([C@H]2O[C@H](SC)[C@H](O)[C@@H](O)[C@H]2O)[C@@H](C)O)N(C)C1` [lincomycin, reference compound], the “persistence of bloody diarrhoea” value ([1]; control group: nourishment comprising 110 ppm lincomycin without EDTA Na2 salt) is reported as “bloody diarrhoea still persisted”.

For `O=C([O-])CN(CCN(CC(=O)[O-])CC(=O)O)CC(=O)O.[Na+].[Na+]` [EDTA Na2 salt], the “abnormal biological symptoms (soft faeces, bloody diarrhoea)” value [2] was “no abnormal biological symptom could be observed”, the “cessation of bloody diarrhoea” value ([1]; 240 ppm EDTA Na2 salt (premix of Example 1) admixed to nourishment comprising 110 ppm lincomycin) was “completely ceased on the third day” and the “later occurrence of bloody diarrhoea” value ([1]; continued feeding with fodder comprising EDTA Na2 salt) was “no bloody diarrhoea occurred”. The “cessation of bloody diarrhoea” value ([3]; 200 ppm EDTA Na2 dissolved in drinking water) was “ceased on the third day”, the “time to reappearance of bloody diarrhoea after withdrawal” value ([3]; animals returned to pure water on the day following the cease of diarrhoea) was 4 days and the “reoccurrence of bloody diarrhoea” value ([3]; while 200 ppm EDTA Na2 was maintained in the drinking water) was “did not reoccur”. The “pathogenic bacteria in the faeces” value ([4]; 60 ppm EDTA Na2 in drinking water with lincomycin) was “No pathogenic bacteria could be detected”, the cessation of diarrhoea ([4]; 60 ppm EDTA Na2 in drinking water, lincomycin therapy maintained, lincomycin-resistant animals) was “ceased completely within some days” and the reoccurrence of diarrhoea ([4]; after terminating lincomycin, EDTA Na2 in drinking water continued) was “did not reoccur”. For the same compound, the “appearance of bloody diarrhoea” value ([5]; 90 days old piglets, until slaughtering) was “No bloody diarrhoea appeared” and the “need for antibiotic treatment” value ([5]; compared with the other animals of the farm) was “no antibiotic treatment of the animals of the test groups was required”.

— patent publication US8425918B2, “Use of EDTA and its derivatives for prevention and treatment of bacterial intestinal diseases of pigs and for increasing the effects of antibiotics exerted in such diseases” (Pharmatéka Gyártó´és Kereskedelmi BT, priority 2007, dated 2013)
